The assay concerns the target human MGAT-2 (Homo sapiens (Human), UniProt Q3SYC2). In words: MGAT LCMS assay. The settings on record: human MGAT-2 membranes expressed in Sf9 cells; 100 μM 2-oleoylglycerol, 15 μM oleoyl-coenzyme A; read-out: h-MGAT LCMS IC50. It is filed as biochemical. The protocol:
The MGAT enzyme reactions were performed in Corning FALCON® 96-well polypropylene plates, in a total volume of 60 μL of 50 mM potassium phosphate buffer pH 7.4, containing a final concentration of 100 μM 2-oleoylglycerol, 15 μM oleoyl-coenzyme A and 0.0013 μg/μL human or mouse MGAT-2 or 0.0026 μg/μL rat recombinant MGAT-2 membranes expressed in Sf9 cells. Assay plates were run through a fully automated robotics system and shaken for 5 seconds every minute for a total 10 minutes. The reactions were then quenched with 120 μL of ice cold methanol containing 1 μg/mL 1,2-distearoyl-rac-glycerol as the internal standard. Plates were shaken for 2 minutes and spun down to remove protein precipitation. After the spin, samples were transferred to LC/MS compatible PCR plates. For LC/MS analysis, a ThermoFisher Surveyor pump, utilizing a Waters SYMMETRY® C8, 50×2.1 mm column, was used for the chromatography of enzyme products. The buffer system consists of 0.1% formic acid in water with a mobile phase consisting 0.1% formic acid in methanol. The shallow gradient is 90-100% mobile phase in 0.2 min with a total run time of 2.3 min. […]
The exemplified Examples disclosed below were tested in the MGAT2 in vitro assays described above and were found having MGAT2 inhibitory activity. Table 1 below lists human MGAT2 IC50 values measured for the following examples.

The values below come from patent US10329273B2, “Tetrazolone-substituted dihydropyridinone MGAT2 inhibitors” (BRISTOL-MYERS SQUIBB COMPANY, priority 2014, dated 2019).

Structures are written as SMILES.

Sequence of human MGAT-2 (Q3SYC2 whole entry): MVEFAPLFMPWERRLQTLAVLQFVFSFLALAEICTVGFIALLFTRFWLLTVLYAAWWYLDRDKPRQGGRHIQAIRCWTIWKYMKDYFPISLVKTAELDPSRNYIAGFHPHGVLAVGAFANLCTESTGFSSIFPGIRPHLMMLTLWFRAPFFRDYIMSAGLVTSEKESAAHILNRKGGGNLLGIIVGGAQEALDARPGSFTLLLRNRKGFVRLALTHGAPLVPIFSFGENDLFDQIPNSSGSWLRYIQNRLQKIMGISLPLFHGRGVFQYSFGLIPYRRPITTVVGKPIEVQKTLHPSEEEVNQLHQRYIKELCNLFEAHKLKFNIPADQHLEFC

For orientation: IC50 means the point on the concentration scale where inhibition reaches its midpoint. `O=C1N[C@@](c2ccc(OCCCC(F)(F)F)cc2F)(C(F)(F)F)CC(c2ccn(CC3CCC3)n2)=C1n1nn[nH]c1=O` [Example 16]: the IC50 stood at 5 nM.
